What was measured:
[1] = system: IL-5 mediated survival of human eosinophils; assay: IL-5 mediated eosinophil survival assay; assay type: cell-based
Description: The potency of the test compound for IL-5 mediated eosinophil survival was measured in human eosinophils isolated from human whole blood (AllCells). Because IL-5 signals through JAK, this assay provides a measure of JAK cellular potency.
Human eosinophils were isolated from fresh human whole blood (AllCells) of healthy donors. Blood was mixed with 4.5% Dextran (Sigma-Aldrich) in a 0.9% sodium chloride solution (Sigma-Aldrich). Red blood cells were left to sediment for 35 minutes. The leukocyte rich upper layer was removed and layered over Ficoll-Paque (GE Healthcare) and centrifuged at 600 g for 30 minutes. The plasma and mononuclear cell layers were removed before the granulocyte layer was lysed with water to remove any contaminating red blood cells. […] Purity was analyzed using a LSRII flow cytometer (BD Biosciences). […]
After cytokine stimulation, cells were centrifuged at 300 g for 5 min and washed twice with cold DPBS (Life Technologies). To access viability and apoptosis, cells were incubated with Propidium Iodide (Thermo Fisher Scientific) and APC Annexin V (BD Biosciences) and analyzed using a LSRII flow cytometer (BD Biosciences). IC50 values were determined from analysis of the viability curves of percent cell viability vs compound concentration. Data are expressed as pIC50 (negative decadic logarithm IC50 ) values.

[2] = system: IL-2/anti-CD3 stimulated IFNγ in human PBMCs; assay: Inhibition of IL-2/anti-CD3 stimulated IFNγ in human PBMCs; assay type: cell-based
Description: The potency of the test compound for inhibition of interleukin-2 (IL-2)/anti-CD3 stimulated interferon gamma (IFNγ) was measured in human peripheral blood mononuclear cells (PBMCs) isolated from human whole blood (Stanford Blood Center). Because IL-2 signals through JAK, this assay provides a measure of JAK cellular potency.
(1) Human peripheral blood mononuclear cells (PBMC) were isolated from human whole blood of healthy donors using a ficoll gradient. Cells were cultured in a 37° C., 5% CO2 humidified incubator in RPMI (Life Technologies) supplemented with 10% Heat Inactivated Fetal Bovine Serum (FBS, Life Technologies), 2 mM Glutamax (Life Technologies), 25 mM HEPES (Life Technologies) and 1X Pen/Strep (Life
Technologies). Cells were seeded at 200,000 cells/well in media (50 μL) and cultured for 1 h. Compounds were serially diluted in DMSO and then diluted another 500-fold (to a 2× final assay concentration) in media. […]
(2) After cytokine stimulation, cells were centrifuged at 500 g for 5 min and supernatants removed and frozen at −80° C. To determine the inhibitory potency of the test compound in response to IL-^2/anti-CD3, supernatant IFNγ concentrations were measured via ELISA (R&D Systems). IC50 values were determined from analysis of the inhibition curves of concentration of IFNγ vs compound concentration. Data are expressed as pIC50 (negative decadic logarithm IC50) values.

[3] = system: IL-6 stimulated STAT3 phosphorylation in CD3+ T cells; assay: Inhibition of IL-6 stimulated pSTAT3 in CD3+ T cells; assay type: cell-based, human
From the text: A protocol analogous to that of Assay 10 was used to determine the potency of the test compound for inhibition of interleuken-6 (IL-6) stimulated STAT3 phosphorylation. An Alexa Fluor 647 conjugated anti-pSTAT3 antibody (pY705, Clone 4/P, BD Biosciences) was used to detect STAT3 phosphorylation.

CCc1cc(O)c(F)cc1-c1ccc2c(-c3nc4c([nH]3)CN(C(C)C)[C@H](C(=O)N3CC(N(C)C)C3)C4)n[nH]c2c1 [Example 2, (S)-(3-(dimethylamino)azetidin-1-yl)(2-(6-(2-ethyl-5-fluoro-4-hydroxyphenyl)-1H-indazol-3-yl)-5-isopropyl-4,5,6,7-tetrahydro-3H-imidazo [4,5-c]pyridin-6-yl)methanone]
inhibition of IL-5 mediated human eosinophil survival [1]: potently inhibit | inhibition of anti-CD3 and IL-2 induced release of IFNγ from activated human peripheral blood-isolated T cells [2]: inhibit | inhibition of IL-6 signaling [3]: inhibit IL-6 signaling

Source: patent US11453668B2, “JAK inhibitors containing a 4-membered heterocyclic amide” (THERAVANCE BIOPHARMA R&D IP, LLC, priority 2017, dated 2022)
